Where “and” joins values, the source holds several entries; their conditions need not be identical. Equal entries are not always repeated. Where two headings read alike, the source gives them in different places. Positions of bridges follow the written chain, without caps; N, C: chain ends. Non-standard residues stand in square brackets, D forms with d. Residues, ends and D or L forms follow the SMILES beside them. *: point of attachment. X1 = N=C(N)NCCC[C@H]1C(=O)N[C@H](C(N)=O)CN1*; dNle = CCCC[C@@H](N)C(=O)O; Heptanoyl = CCCCCCC(=O)*
Assays:
[1] = cited from earlier work
[2] = target: T1, human NPR-B (Homo sapiens, UniProt P20594); experiment: cGMP generation in HEK293 cells expressing receptor; type: cell-based; conditions: for Emax, cGMP generation, hNPR-B: mean ± SEM; for Effect on cGMP generation in hNPR-B functional assay: concentrations up to 10 µM
T1 sequence (P20594 23-1047): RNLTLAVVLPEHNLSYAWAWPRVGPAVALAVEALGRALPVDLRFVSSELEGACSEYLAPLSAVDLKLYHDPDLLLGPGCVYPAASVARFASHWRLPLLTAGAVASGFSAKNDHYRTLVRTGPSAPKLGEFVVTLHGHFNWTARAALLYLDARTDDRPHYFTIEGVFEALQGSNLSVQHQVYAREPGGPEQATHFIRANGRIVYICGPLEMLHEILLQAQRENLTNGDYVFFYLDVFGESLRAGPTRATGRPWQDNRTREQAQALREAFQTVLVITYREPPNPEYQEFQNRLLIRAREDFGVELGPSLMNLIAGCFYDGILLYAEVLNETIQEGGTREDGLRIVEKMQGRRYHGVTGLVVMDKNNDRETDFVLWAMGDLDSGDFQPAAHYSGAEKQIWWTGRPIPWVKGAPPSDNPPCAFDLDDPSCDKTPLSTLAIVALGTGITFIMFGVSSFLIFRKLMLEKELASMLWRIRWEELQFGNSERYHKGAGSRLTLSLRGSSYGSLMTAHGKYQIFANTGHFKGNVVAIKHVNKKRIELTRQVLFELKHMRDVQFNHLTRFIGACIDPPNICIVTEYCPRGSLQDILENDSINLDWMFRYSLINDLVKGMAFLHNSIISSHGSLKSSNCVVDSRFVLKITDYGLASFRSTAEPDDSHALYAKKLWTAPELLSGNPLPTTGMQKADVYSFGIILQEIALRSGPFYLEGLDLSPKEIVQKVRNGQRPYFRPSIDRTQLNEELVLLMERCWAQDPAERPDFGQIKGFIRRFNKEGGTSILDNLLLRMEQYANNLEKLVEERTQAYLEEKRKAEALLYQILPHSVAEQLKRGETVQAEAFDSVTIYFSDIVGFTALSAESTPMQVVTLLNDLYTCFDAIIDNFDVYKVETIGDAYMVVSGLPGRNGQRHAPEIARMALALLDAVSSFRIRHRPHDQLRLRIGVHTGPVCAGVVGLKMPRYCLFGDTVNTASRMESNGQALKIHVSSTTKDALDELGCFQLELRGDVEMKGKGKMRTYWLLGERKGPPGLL

[3] = target: kappa opioid receptor; experiment: CEREP profiling screen and follow-up Ki; type: binding; conditions: read-out: Ki, kappa; follow-up study
[4] = test system: bronchoconstrictor response to aerosolized methacholine; experiment: Methacholine-induced bronchoconstriction in anaesthetized guinea pigs; type: in vivo, guinea pig; conditions: for Maximum inhibition of methacholine bronchoconstrictor response: 1000 µg/kg i.t., 15-min pretreatment, n = 6, mean ± SEM; for Inhibition of methacholine bronchoconstriction at 60 min: i.t., 60-min pretreatment, all doses
[5] = test system: 75 diverse molecular targets; experiment: CEREP standard profiling screen; type: binding; conditions: 1 µM
[6] = target: non-selective somatostatin receptor (sst); experiment: CEREP profiling screen and follow-up Ki; type: binding; conditions: read-out: Ki, sst; follow-up study
[7] = test system: mean arterial blood pressure and heart rate; experiment: Cardiovascular parameters in anaesthetized guinea pigs; conditions: i.t.; PL-3994 1–1000 µg/kg, salbutamol 1000 µg/kg; n = 6
[8] = test system: rat trachea; experiment: Relaxation of carbachol-precontracted rat trachea; conditions: 100 µM; carbachol 1 µM; n = 6; mean ± SEM

Row | SMILES | Emax, cGMP generation, hNPR-B [2] | Effect on cGMP generation in hNPR-B functional assay [2] | Maximum inhibition of methacholine bronchoconstrictor response [4] | Inhibition of methacholine bronchoconstriction at 60 min [4] | Effect on heart rate compared to baseline [7] | Effect on mean arterial blood pressure compared to baseline [7] | further results
1 | CC[C@H](C)[C@@H]1NC(=O)[C@H](CCCNC(=N)N)NC(=O)[C@H](CC(=O)O)NC(=O)[C@H](CCSC)NC(=O)[C@H](CCCNC(=N)N)NC(=O)CNC(=O)CNC(=O)[C@H](Cc2ccccc2)NC(=O)[C@@H](NC(=O)[C@H](CO)NC(=O)[C@H](CO)NC(=O)[C@H](CCCNC(=N)N)NC(=O)[C@H](CCCNC(=N)N)NC(=O)[C@H](CC(C)C)NC(=O)[C@@H](N)CO)CSSC[C@@H](C(=O)N[C@@H](CC(N)=O)C(=O)N[C@@H](CO)C(=O)N[C@@H](Cc2ccccc2)C(=O)N[C@@H](CCCNC(=N)N)C(=O)N[C@@H](Cc2ccc(O)cc2)C(=O)O)NC(=O)CNC(=O)[C@H](CC(C)C)NC(=O)CNC(=O)[C@H](CO)NC(=O)[C@H](CCC(N)=O)NC(=O)[C@H](C)NC(=O)CNC1=O [hANP, atrial natriuretic peptide] | 6 ± 0.8 % hCNP | – | – | – | – | – | Human plasma half-life ([1]; human, in vivo): about 2 min
2 | CC[C@H](C)[C@@H]1NC(=O)[C@H](CCCNC(=N)N)NC(=O)[C@H](CC(=O)O)NC(=O)[C@H](CCSC)NC(=O)[C@H](CCCCN)NC(=O)[C@H](CCCNC(=N)N)NC(=O)CNC(=O)[C@H](Cc2ccccc2)NC(=O)[C@@H](NC(=O)CNC(=O)[C@H](CO)NC(=O)CNC(=O)[C@H](CCC(N)=O)NC(=O)[C@@H](NC(=O)[C@H](CCSC)NC(=O)[C@H](CCCCN)NC(=O)[C@@H]2CCCN2C(=O)[C@@H](N)CO)C(C)C)CSSC[C@@H](C(=O)N[C@@H](CCCCN)C(=O)N[C@H](C(=O)N[C@@H](CC(C)C)C(=O)N[C@@H](CCCNC(=N)N)C(=O)N[C@@H](CCCNC(=N)N)C(=O)N[C@@H](Cc2c[nH]cn2)C(=O)O)C(C)C)NC(=O)CNC(=O)[C@H](CC(C)C)NC(=O)CNC(=O)[C@H](CO)NC(=O)[C@H](CO)NC(=O)[C@H](CO)NC(=O)[C@H](CO)NC1=O [hBNP, brain natriuretic peptide] | 9 ± 1 % hCNP | no functional activity | – | – | – | – | –
3 | CC[C@H](C)[C@@H]1NC(=O)[C@H](CCCNC(=N)N)NC(=O)[C@H](CC(=O)O)NC(=O)[C@H](CC(C)C)NC(=O)[C@H](CCCCN)NC(=O)[C@H](CC(C)C)NC(=O)CNC(=O)[C@H](Cc2ccccc2)NC(=O)[C@@H](NC(=O)CNC(=O)[C@H](CCCCN)NC(=O)[C@H](CO)NC(=O)[C@H](CC(C)C)NC(=O)CN)CSSC[C@@H](C(=O)O)NC(=O)CNC(=O)[C@H](CC(C)C)NC(=O)CNC(=O)[C@H](CO)NC(=O)[C@H](CCSC)NC(=O)[C@H](CO)NC(=O)CNC1=O [CNP, C-type natriuretic peptide] | – | – | – | – | – | – | Human plasma half-life ([1]; ref [10]): about 2 min
4 | CCCCCCC(=O)N[C@H]1CSSC[C@@H](C(=O)N[C@@H](Cc2ccc(O)cc2)C(=O)N2C[C@@H](C(N)=O)NC(=O)[C@@H]2CCCNC(=N)N)NC(=O)[C@H](CO)NC(=O)[C@H]([C@@H](C)CC)NC(=O)[C@H](CCCNC(=N)N)NC(=O)[C@H](CC(=O)O)NC(=O)[C@@H](CCCC)NC(=O)[C@H](CCCNC(=N)N)NC(=O)CNC(=O)[C@@H](C)NC(=O)[C@H](Cc2ccccc2)NC(=O)[C@H](Cc2c[nH]cn2)NC1=O [PL-3994, Hept-cyclo(Cys-His-Phe-D-Ala-Gly-Arg-D-Nle-Asp-Arg-Ile-Ser-Cys)-Tyr-[Arg-mimetic]-NH2] (Heptanoyl-CHF[dA]GR[dNle]DRISCY-X1; disulfide 1-12) | – | without effect | 70% | maintained | no significant effect | no significant effect | Ki [3]: 880 nM; Inhibition of methacholine bronchoconstriction at 120 min ([4]; 10 µg/kg and 100 µg/kg i.t.): extended to 120 min post-administration, although it was reduced; Inhibition of methacholine bronchoconstriction at 240 min ([4]; 10 µg/kg and 100 µg/kg i.t., 240-min pretreatment): absent; EC50, cGMP generation, hNPR-B ([2]; HEK293 cells, 0.5 mM IBMX, 15 min, cGMP HTRF): Not calculable; Effect against 75 diverse molecular targets [5]: without significant effect; Ki [6]: 4.2 µM
5 | CC(C)(C)NCC(O)c1ccc(O)c(CO)c1 (stereo not drawn) [salbutamol] | – | – | 87 ± 2% and 87% | maintained | no significant effect | no significant effect | Relaxation of carbachol-precontracted rat trachea [8]: 70.0 ± 10.4 % relaxation

Reference: paper PMC4070431 (Pulmonary pharmacology & therapeutics, 2012)
